Laboratory results taken from ChEMBL document CHEMBL4251663, “Marine Invertebrate Natural Products that Target Microtubules” (J Nat Prod, 2018).
Converted amounts (≈) assume the structure as drawn.

Key:
[1] = test system: HT-29; experiment: Cytotoxicity against human HT-29 cells; format: functional, cell-based
[2] = test system: P388; experiment: Cytotoxicity against mouse P388 cells; format: functional, cell-based
[3] = Cytotoxicity against human MEL28 cells; format: functional, cell-based; conditions: SK-MEL-28
[4] = test system: A549; experiment: Cytotoxicity against human A549 cells; format: functional, cell-based
[5] = molecular target: Tubulin; experiment: Inhibition of tubulin polymerization (unknown origin) pretreated for 15 mins followed by GTP addition by spectrophotometric method; format: protein-complex assay, Homo sapiens

## C=C1C[C@@H]2C/C=C/C(=O)C/C(C)=C\C=C\C(=O)O[C@H]([C@H](O)NC(=O)/C=C\C=C\C)C/C(C)=C/[C@H](C1)O2 [ZAMPANOLIDE]
[1]
  IC50: 1 to 5 ng/mL (≈ 2.02 to 10.1 nM)
[2]
  IC50: 1 to 5 ng/mL (≈ 2.02 to 10.1 nM)
[3]
  IC50: 1 to 5 ng/mL (≈ 2.02 to 10.1 nM)
[4]
  IC50: 1 to 5 ng/mL (≈ 2.02 to 10.1 nM)

## COC1=CC(=O)N(C(=O)[C@@H](OC(=O)[C@@H]2CCCN2C(=O)[C@@H]2CCCN2C(=O)[C@H](C(C)C)N(C)C(=O)[C@@H](NC(=O)[C@H](C(C)C)N(C)C)C(C)C)C(C)C)[C@H]1Cc1ccccc1 [DOLASTATIN 15]
[5]
  IC50: 23 µM

## CC[C@H](C)[C@@H]([C@@H](CC(=O)N1CCC[C@H]1[C@H](OC)[C@@H](C)C(=O)N[C@@H](Cc1ccccc1)c1nccs1)OC)N(C)C(=O)[C@@H](NC(=O)[C@H](C(C)C)N(C)C)C(C)C [DOLASTATIN-10]
[5]
  IC50: 1.2 µM
